Measured values reported in patent US5041567A, “Antibacterial monic acid derivatives” (Beecham Group plc, priority 1982, dated 1991).
≈ marks a conversion by molar mass, not a printed value. Like-named read-outs stand apart in the source and are kept apart here.

Key:
M. suipneumoniae NB12 = test: MIC against mycoplasma in vitro; format: cell-based; settings: Mesomycoplasma hyopneumoniae
M. suipneumoniae JF 435 = test: MIC against mycoplasma in vitro; format: cell-based; settings: Mesomycoplasma hyopneumoniae, JF435, 144 h
M. suipneumoniae Str. 11 = test: MIC against mycoplasma in vitro; format: cell-based; settings: Mesomycoplasma hyopneumoniae
M. suipneumoniae MS 16 = test: MIC against mycoplasma in vitro; format: cell-based; settings: Mesomycoplasma hyopneumoniae, MS16, 144 h
[1] = tested on: M. suipneumoniae PW/C/210; test: MIC against mycoplasma in vitro; format: cell-based; settings: Mesomycoplasma hyopneumoniae, 144 h
M. suipneumoniae UCD 1 = test: MIC against mycoplasma in vitro; format: cell-based; settings: Mesomycoplasma hyopneumoniae, UCD1, 144 h
M. suipneumoniae TAM 6N = test: MIC against mycoplasma in vitro; format: cell-based; settings: Mesomycoplasma hyopneumoniae, TAM6N, 144 h; M. suipneumoniae TAM 6N; 6 days, 37° C.; read-out: MIC
[2] = tested on: M. suipneumoniae ATCC 25095; test: MIC against mycoplasma in vitro; format: cell-based; settings: Mesomycoplasma hyopneumoniae, ATCC25095, 144 h
[3] = tested on: M. suipneumoniae NCTC 10110; test: MIC against mycoplasma in vitro; format: cell-based; settings: Mesomycoplasma hyopneumoniae, NCTC10110, 144 h
M. hyorhinis ATCC 25021 = test: MIC against mycoplasma in vitro; format: cell-based; settings: Mesomycoplasma hyorhinis, ATCC25021, 144 h
[4] = tested on: M. bovigenitalium ATCC 14173; test: MIC against mycoplasma in vitro; format: cell-based; settings: 144 h
M. dispar NCTC 10125 = test: MIC against mycoplasma in vitro; format: cell-based; settings: 144 h
M. gallisepticum S6 = test: MIC against mycoplasma in vitro; format: cell-based; settings: Mycoplasmoides gallisepticum, 144 h; M. gallisepticum S6; 6 days, 37° C.; read-out: MIC
E. coli NCTC 10418 [5] = test: MIC against human bacteria in vitro; format: cell-based; settings: Escherichia coli
P. mirabilis 889 = test: MIC against human bacteria in vitro; format: cell-based
[6] = tested on: Ps. aeruginosa NCTC 10662; test: MIC against human bacteria in vitro; format: cell-based; settings: Pseudomonas aeruginosa
[7] = tested on: Haemophilus influenzae Wy21; test: MIC against human bacteria in vitro; format: cell-based
[8] = tested on: Neisseria catarrhalis 1502; test: MIC against human bacteria in vitro; format: cell-based
[9] = tested on: Corynebacterium xerosis 9755; test: MIC against human bacteria in vitro; format: cell-based
Sarcina lutea 8340 = test: MIC against human bacteria in vitro; format: cell-based
Staph. aureus Oxford = test: MIC against human bacteria in vitro; format: cell-based; settings: Staphylococcus aureus; Staph. aureus Oxford; 5% chocolated horse blood agar, 18 hours; read-out: MIC
Staph. aureus Russell = test: MIC against human bacteria in vitro; format: cell-based; settings: Staphylococcus aureus; Staph. aureus Russell; 5% chocolated horse blood agar, 18 hours; read-out: MIC
Staph. aureus W2827 = test: MIC against human bacteria in vitro; format: cell-based; settings: Staphylococcus aureus; Staph. aureus W2827; 5% chocolated horse blood agar, 18 hours; read-out: MIC
[10] = tested on: Strep. pyogenes R80/421-A; test: MIC against human bacteria in vitro; format: cell-based; settings: Streptococcus pyogenes; Strep. pyogenes R80/421-A; 5% chocolated horse blood agar, 18 hours; read-out: MIC
Strep. agalactiae 2788-B = test: MIC against human bacteria in vitro; format: cell-based; settings: Streptococcus agalactiae; Strep. agalactiae 2788-B; 5% chocolated horse blood agar, 18 hours; read-out: MIC
Strep. pneumoniae CN33 = test: MIC against human bacteria in vitro; format: cell-based; settings: Streptococcus pneumoniae; Strep. pneumoniae CN33; 5% chocolated horse blood agar, 18 hours; read-out: MIC
E. coli NCTC 10418 [11] = test: MIC against veterinary bacteria in vitro; settings: Escherichia coli, NCTC10418, 18 h
Method: (§1) The activity of the compounds of the Examples against various veterinarily important bacteria, was assayed in vitro using two-fold serial dilutions in Diagnostic Sensitivity Test Agar inoculated with 10^4 organisms.

E. coli E1 = test: MIC against veterinary bacteria in vitro; settings: Escherichia coli, E1, 18 h
Method: as §1

S. dublin S7 = test: MIC against veterinary bacteria in vitro; settings: Salmonella enterica, S7, 18 h
Method: as §1

Past. multocida PA1 = test: MIC against veterinary bacteria in vitro; settings: Pasteurella multocida, PA1, 18 h
Method: as §1

Past. multocida PA2 = test: MIC against veterinary bacteria in vitro; settings: Pasteurella multocida, PA2, 18 h
Method: as §1

Past. haemolytica PA5 = test: MIC against veterinary bacteria in vitro; settings: Mannheimia haemolytica, PA5, 18 h
Method: as §1

[12] = tested on: Strep. suis (group D) SPS11; test: MIC against veterinary bacteria in vitro; settings: Streptococcus suis, 18 h
Method: as §1

Strep. agalactiae SPA1 = test: MIC against veterinary bacteria in vitro; settings: Streptococcus agalactiae, SPA1, 18 h
Method: as §1

[13] = tested on: Staph. aureus 152 (pen. sens); test: MIC against veterinary bacteria in vitro; settings: Staphylococcus aureus, 18 h
Method: as §1

C/C(=C\c1ncc(-c2cccc([N+](=O)[O-])c2)o1)C[C@@H]1OC[C@H](C[C@@H]2O[C@H]2[C@@H](C)[C@H](C)O)[C@@H](O)[C@H]1O [Example 6, 5-m-nitrophenyl-2-(1-normon-2-yl)oxazole A]
MIC (M. suipneumoniae NB12; NB12, 144 h): 0.05 µg/mL (≈ 0.102 µM)
MIC (M. suipneumoniae JF 435): 0.05 µg/mL (≈ 0.102 µM)
MIC (M. suipneumoniae Str. 11; STR.11, 144 h): 0.05 µg/mL (≈ 0.102 µM)
MIC (M. suipneumoniae MS 16): 0.025 µg/mL (≈ 0.0512 µM)
MIC [1]: 0.025 µg/mL (≈ 0.0512 µM)
MIC (M. suipneumoniae UCD 1): 0.05 µg/mL (≈ 0.102 µM)
MIC (M. suipneumoniae TAM 6N): 0.1 µg/mL (≈ 0.205 µM)
MIC [2]: 0.05 µg/mL (≈ 0.102 µM)
MIC [3]: 0.05 µg/mL (≈ 0.102 µM)
MIC (M. hyorhinis ATCC 25021): 0.025 µg/mL (≈ 0.0512 µM)
MIC [4]: 0.05 µg/mL (≈ 0.102 µM)
MIC (M. dispar NCTC 10125): 0.025 µg/mL (≈ 0.0512 µM)
MIC (M. gallisepticum S6): 1 µg/mL (≈ 2.05 µM)
MIC (E. coli NCTC 10418 [5]; NCTC10418, E. coli NCTC 10418, agar with 5% chocolated horse blood, 18 hours, 37° C., read-out: MIC): > 128 µg/mL
MIC (P. mirabilis 889; Proteus mirabilis, P. mirabilis 889, 5% chocolated horse blood agar, 18 hours, read-out: MIC): > 128 µg/mL
MIC ([6]; NCTC10662, Ps. aeruginosa NCTC 10662, 5% chocolated horse blood agar, 18 hours, read-out: MIC): > 128 µg/mL
MIC ([7]; Haemophilus influenzae Wy21, 5% chocolated horse blood agar, 18 hours, read-out: MIC): 2 µg/mL (≈ 4.09 µM)
MIC ([8]; Neisseria catarrhalis 1502, 5% chocolated horse blood agar, 18 hours, read-out: MIC): 4 µg/mL (≈ 8.19 µM)
MIC ([9]; Corynebacterium xerosis 9755, 5% chocolated horse blood agar, 18 hours, read-out: MIC): > 128 µg/mL
MIC (Sarcina lutea 8340; Micrococcus luteus, Sarcina lutea 8340, 5% chocolated horse blood agar, 18 hours, read-out: MIC): > 128 µg/mL
MIC (Staph. aureus Oxford): 8 µg/mL (≈ 16.4 µM)
MIC (Staph. aureus Russell): 16 µg/mL (≈ 32.8 µM)
MIC (Staph. aureus W2827): 16 µg/mL (≈ 32.8 µM)
MIC [10]: 4 µg/mL (≈ 8.19 µM)
MIC (Strep. agalactiae 2788-B): 4 µg/mL (≈ 8.19 µM)
MIC (Strep. pneumoniae CN33): 4 µg/mL (≈ 8.19 µM)
MIC (E. coli NCTC 10418 [11]): > 80 µg/mL
MIC (E. coli E1): > 80 µg/mL
MIC (S. dublin S7): > 80 µg/mL
MIC (Past. multocida PA1): 10 µg/mL (≈ 20.5 µM)
MIC (Past. multocida PA2): 1.25 µg/mL (≈ 2.56 µM)
MIC (Past. haemolytica PA5): 80 µg/mL (≈ 164 µM)
MIC [12]: 10 µg/mL (≈ 20.5 µM)
MIC (Strep. agalactiae SPA1): 2.5 µg/mL (≈ 5.12 µM)

COC(=O)CCCCCCCc1cnc(/C=C(\C)C[C@@H]2OC[C@H](C[C@@H]3O[C@H]3[C@@H](C)[C@H](C)O)[C@@H](O)[C@H]2O)o1 [Example 7, 5-(7-Methoxycarbonylheptyl)-2-(1-normon-2-yl)oxazole A]
MIC (M. suipneumoniae NB12; 144 h, M. suipneumoniae NB12, Friis broth, 0.9% agarose, 6 days, 37° C., read-out: MIC): > 10 µg/mL
MIC (M. suipneumoniae JF 435; M. suipneumoniae JF 435, 6 days, 37° C., read-out: MIC): > 10 µg/mL
MIC (M. suipneumoniae Str. 11; 144 h, M. suipneumoniae Str. 11, 6 days, 37° C., read-out: MIC): 10 µg/mL (≈ 19.1 µM)
MIC (M. suipneumoniae MS 16; M. suipneumoniae MS 16, 6 days, 37° C., read-out: MIC): 10 µg/mL (≈ 19.1 µM)
MIC ([1]; M. suipneumoniae PW/C/210, 6 days, 37° C., read-out: MIC): 10 µg/mL (≈ 19.1 µM)
MIC (M. suipneumoniae UCD 1; M. suipneumoniae UCD 1, 6 days, 37° C., read-out: MIC): > 10 µg/mL
MIC (M. suipneumoniae TAM 6N): > 10 µg/mL
MIC ([2]; M. suipneumoniae ATCC 25095, 6 days, 37° C., read-out: MIC): 10 µg/mL (≈ 19.1 µM)
MIC ([3]; M. suipneumoniae NCTC 10110, 6 days, 37° C., read-out: MIC): 10 µg/mL (≈ 19.1 µM)
MIC (M. hyorhinis ATCC 25021; M. hyorhinis ATCC 25021, 6 days, 37° C., read-out: MIC): 10 µg/mL (≈ 19.1 µM)
MIC ([4]; M. bovigenitalium ATCC 14173, 6 days, 37° C., read-out: MIC): 1 µg/mL (≈ 1.91 µM)
MIC (M. dispar NCTC 10125; M. dispar NCTC 10125, 6 days, 37° C., read-out: MIC): 2.5 µg/mL (≈ 4.77 µM)
MIC (M. gallisepticum S6): > 10 µg/mL
MIC (E. coli NCTC 10418 [5]; NCTC10418, 18 h): > 100 µg/mL
MIC (P. mirabilis 889; Proteus mirabilis, 889, 18 h): > 100 µg/mL
MIC ([6]; NCTC10662, 18 h): > 100 µg/mL
MIC ([7]; Haemophilus influenzae, WY21, 18 h): 1 µg/mL (≈ 1.91 µM)
MIC ([8]; Neisseria, 1502, 18 h): 5 µg/mL (≈ 9.55 µM)
MIC ([9]; Corynebacterium xerosis, 9755, 18 h): > 100 µg/mL
MIC (Sarcina lutea 8340; Micrococcus luteus, 8340, 18 h): > 100 µg/mL
MIC (Staph. aureus Russell): 25 µg/mL (≈ 47.7 µM)
MIC (Staph. aureus W2827): 25 µg/mL (≈ 47.7 µM)
MIC [10]: 25 µg/mL (≈ 47.7 µM)
MIC (Strep. agalactiae 2788-B): 25 µg/mL (≈ 47.7 µM)
MIC (Strep. pneumoniae CN33): 25 µg/mL (≈ 47.7 µM)
MIC (E. coli NCTC 10418 [11]): > 80 µg/mL
MIC (E. coli E1): > 80 µg/mL
MIC (S. dublin S7): > 80 µg/mL
MIC (Past. multocida PA1): 40 µg/mL (≈ 76.4 µM)
MIC (Past. multocida PA2): 20 µg/mL (≈ 38.2 µM)
MIC (Past. haemolytica PA5): > 80 µg/mL
MIC [13]: 5 µg/mL (≈ 9.55 µM)
MIC [12]: 80 µg/mL (≈ 153 µM)
MIC (Strep. agalactiae SPA1): 5 µg/mL (≈ 9.55 µM)
